Legend:
Details in all cases: incubation time: 72 h
MDA-MB-436 [1] = test: normalised viability (% of control), CellTiter-Blue; higher = more viable cells (about 100 = DMSO control)
Protocol: (§1)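 DSRT, CellTiter-Blue viability, 72 h incubation. Signal is normalised to DMSO and benzethonium chloride controls. Value is the normalised response at dose 3.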

CAL-148 [2] = test: as above
Protocol: as §1

HCC1937 [3] = test: as above
Protocol: as §1

HCC1143 [4] = test: as above
Protocol: as §1

SK-BR-3 [5] = test: as above
Protocol: as §1

MDA-MB-468 [6] = test: as above
Protocol: as §1

DU-4475 [7] = test: as above
Protocol: as §1

BT-549 [8] = test: as above
Protocol: as §1

MFM-223 [9] = test: as above
Protocol: as §1

HCC1599 [10] = test: as above
Protocol: as §1

MDA-MB-436 [11] = test: drug sensitivity score (DSS), CellTiter-Blue viability (DSS (AUC-based score)); higher = stronger viability inhibition; extreme values may be limits of the assay
Protocol: (§2)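 DSRT with the CellTiter-Blue (resazurin reduction) viability readout, fluorescence 560/590 nm, 72 h incubation. Plates were normalised to DMSO and benzethonium chloride controls. DSS is computed from the area under the fitted dose-response curve (5 or 9 concentrations).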

Hs578T = test: as above
Protocol: as §2

CAL-148 [12] = test: as above
Protocol: as §2

HCC1937 [13] = test: as above
Protocol: as §2

MDA-MB-231 = test: as above
Protocol: as §2

HDQ-P1 = test: as above
Protocol: as §2

HCC1143 [14] = test: as above
Protocol: as §2

BT-474 = test: as above
Protocol: as §2

CAL-85-1 = test: as above
Protocol: as §2

SK-BR-3 [15] = test: as above
Protocol: as §2

MDA-MB-468 [16] = test: as above
Protocol: as §2

DU-4475 [17] = test: as above
Protocol: as §2

BT-549 [18] = test: as above
Protocol: as §2

MFM-223 [19] = test: as above
Protocol: as §2

HCC1599 [20] = test: as above
Protocol: as §2

CAL-51 = test: as above
Protocol: as §2

MDA-MB-453 = test: as above
Protocol: as §2

CAL-120 = test: as above
Protocol: as §2

Row | Compound | normalised viability (MDA-MB-436 [1]; 100 nM) | normalised viability (CAL-148 [2]; 10 nM) | normalised viability (HCC1937 [3]; 100 nM) | normalised viability (HCC1143 [4]; 100 nM) | normalised viability (SK-BR-3 [5]; 100 nM) | normalised viability (MDA-MB-468 [6]; 100 nM) | normalised viability (DU-4475 [7]; 10 nM) | normalised viability (BT-549 [8]; 100 nM) | normalised viability (MFM-223 [9]; 100 nM) | normalised viability (HCC1599 [10]; 100 nM) | drug sensitivity score (MDA-MB-436 [11]) | drug sensitivity score (Hs578T) | drug sensitivity score (CAL-148 [12]) | drug sensitivity score (HCC1937 [13]) | drug sensitivity score (MDA-MB-231) | drug sensitivity score (HDQ-P1) | drug sensitivity score (HCC1143 [14]) | drug sensitivity score (BT-474) | drug sensitivity score (CAL-85-1) | drug sensitivity score (SK-BR-3 [15]) | drug sensitivity score (MDA-MB-468 [16]) | drug sensitivity score (DU-4475 [17]) | drug sensitivity score (BT-549 [18]) | drug sensitivity score (MFM-223 [19]) | drug sensitivity score (HCC1599 [20]) | drug sensitivity score (CAL-51) | drug sensitivity score (MDA-MB-453) | drug sensitivity score (CAL-120) | normalised viability (MDA-MB-436 [1]; 500 nM) | normalised viability (CAL-148 [2]; 50 nM) | normalised viability (HCC1937 [3]; 500 nM) | normalised viability (HCC1143 [4]; 500 nM) | normalised viability (SK-BR-3 [5]; 500 nM) | normalised viability (MDA-MB-468 [6]; 500 nM) | normalised viability (DU-4475 [7]; 50 nM) | normalised viability (BT-549 [8]; 500 nM) | normalised viability (MFM-223 [9]; 500 nM) | normalised viability (HCC1599 [10]; 500 nM)
1 | CCCC(CCC)C(=O)O [Valproic acid] | 95.4% | 106% | 98.8% | 94.9% | 95% | 115% | 93.7% | 92% | 94.9% | 102% | 0 | 0 | 0 | 0 | 0 | 0 | 0 | 0 | 0 | 0 | 0 | 0 | 0 | 0 | 0 | 0 | 0 | 0 |  |  |  |  |  |  |  |  |  | 
2 | C#Cc1cccc(Nc2ncnc3cc(OC)c(OCCCCCCC(=O)NO)cc23)c1 [CUDC-101] | 117% | 83.6% | 88.8% | 79.7% | 58.9% | 66.2% | 101% | 97.6% | 63.3% | 83.4% | 10.6 | 15.6 | 12.2 | 11.3 | 12 | 14.7 | 12.4 | 14.8 | 15 | 18.6 | 18 | 10.6 | 8.79 | 15.6 | 15.3 | 4.16 | 19.9 | 11.8 |  |  |  |  |  |  |  |  |  | 
3 | C[C@@H]1C=C2C(=O)O[C@@H]3CC[C@H](C1)[C@]23O [Galiellalactone] |  |  |  |  |  |  |  |  |  |  | 6.26 | 0.961 | 4.5 | 5.76 | 9.39 | 2.82 | 0 | 2.65 | 9.4 | 6.66 | 6.59 | 0 | 10.4 | 2.28 | 0 | 0.94 | 8.97 | 0 | 90.1% | 104% | 90.9% | 106% | 96.4% | 105% | 117% | 105% | 92.8% | 91.1%
4 | CN1CCN(c2ccc3nc(-c4c(N)c5c(F)cccc5[nH]c4=O)[nH]c3c2)CC1 [Dovitinib] | 99.7% | 94.7% | 95.6% | 84.5% | 101% | 86.9% | 99.8% | 90.5% | 80.2% | 88.2% | 0 | 0 | 0 | 3.16 | 0 | 0 | 0 | 0 | 0 | 0 | 0 | 0 | 0 | 0 | 0 | 0 | 0 | 0 |  |  |  |  |  |  |  |  |  | 
5 | O=c1[nH]cc(F)c(=O)[nH]1 [Fluorouracil] | 89.1% | 108% | 104% | 97.7% | 87% | 104% | 97% | 107% | 96.5% | 102% | 1.93 | 0 | 4.79 | 0 | 1.96 | 0 | 0 | 0 | 5.28 | 8.26 | 0.272 | 1.34 | 2.25 | 0 | 1.41 | 1.79 | 1.33 | 2.97 |  |  |  |  |  |  |  |  |  | 
6 | COC1=CC(c2cc3ccccc3[nH]2)=N/C1=C\c1[nH]c(C)cc1C [Obatoclax] | 58.7% | 87.7% | 45.9% | 78% | 43.3% | 69% | 87.7% | 62.9% | 71.7% | 93.4% | 13.7 | 16.6 | 4.47 | 25.1 | 21 | 15.4 | 9.51 | 15.2 | 8.55 | 20.1 | 16.6 | 2.24 | 16.4 | 7.09 | 7.48 | 7.63 | 13.8 | 25.3 |  |  |  |  |  |  |  |  |  | 
7 | O=C(c1ccc(OCCN2CCCCC2)cc1)c1c(-c2ccc(O)cc2)sc2cc(O)ccc12 [Raloxifene] | 107% | 100% | 110% | 109% | 115% | 105% | 105% | 87.2% | 84.3% | 104% | 0 | 0 | 0 | 0 | 0 | 0 | 0 | 0 | 0 | 0 | 0 | 0 | 0 | 0 | 0 | 0 | 1.25 | 0 |  |  |  |  |  |  |  |  |  | 

— the supplement of paper PMC4862054
